Source: US9821173B2, “Anti-cancer agents and methods of use” (Case Western Reserve University, priority 2013, dated 2017)

Columns and labels:
Experiment in all cases: Kinase inhibition screening (Luceome)
Format in all cases: biochemical
Conditions in all cases: 10 μM
PKC-η = target: T1, PKC-η (Homo sapiens, UniProt P24723)
T1 construct: purchased Luceome Biotechnologies (Tucson, Ariz.)
Source text: (§1) It is well established that dysfunctional and unregulated kinase activity plays significant roles in cancer initiation and progression. […] Inspection of the data provides several interesting observations. […] These inhibitory effects at this concentration are consistent with their measured IC50 values that are also in the μM range (Table 1). In addition, several kinases display overlapping inhibitory responses to both gold(I) compounds. Many of these are of particular interest since they are involved in cancer initiation and/or progression. For example, the Aurora kinase family members, Aurora A and Aurora B, as well as the MARK2 and MARK3 kinases function during mitosis to regulate cell division. These kinases are important therapeutic targets as their activities are often deregulated in many types of cancers. Other kinases such as RPS6KA3 and MLK3 are involved in the MAP kinase and JNK pathways which are also important in cancer progression.

YES1 = target: T2, YES1 (Homo sapiens, UniProt P07947)
T2 construct: purchased Luceome Biotechnologies (Tucson, Ariz.)
T2 sequence (P07947 whole entry): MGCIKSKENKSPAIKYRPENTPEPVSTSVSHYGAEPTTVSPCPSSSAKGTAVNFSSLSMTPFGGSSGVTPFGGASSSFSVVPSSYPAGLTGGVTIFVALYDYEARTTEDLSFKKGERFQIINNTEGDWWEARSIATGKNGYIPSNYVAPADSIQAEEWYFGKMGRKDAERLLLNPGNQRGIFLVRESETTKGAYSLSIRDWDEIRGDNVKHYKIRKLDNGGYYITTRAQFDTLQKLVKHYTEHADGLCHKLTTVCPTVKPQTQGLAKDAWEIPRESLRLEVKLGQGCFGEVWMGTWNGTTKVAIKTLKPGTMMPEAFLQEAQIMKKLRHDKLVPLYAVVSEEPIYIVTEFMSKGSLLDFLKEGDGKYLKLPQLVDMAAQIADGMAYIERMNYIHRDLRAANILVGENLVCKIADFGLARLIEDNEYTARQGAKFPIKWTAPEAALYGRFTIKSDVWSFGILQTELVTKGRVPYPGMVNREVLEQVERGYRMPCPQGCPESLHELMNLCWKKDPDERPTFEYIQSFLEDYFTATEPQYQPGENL
Source text: as §1

FLT1 = target: T3, FLT1 (Homo sapiens, UniProt P17948)
T3 construct: purchased Luceome Biotechnologies (Tucson, Ariz.)
T3 sequence (P17948 27-1338): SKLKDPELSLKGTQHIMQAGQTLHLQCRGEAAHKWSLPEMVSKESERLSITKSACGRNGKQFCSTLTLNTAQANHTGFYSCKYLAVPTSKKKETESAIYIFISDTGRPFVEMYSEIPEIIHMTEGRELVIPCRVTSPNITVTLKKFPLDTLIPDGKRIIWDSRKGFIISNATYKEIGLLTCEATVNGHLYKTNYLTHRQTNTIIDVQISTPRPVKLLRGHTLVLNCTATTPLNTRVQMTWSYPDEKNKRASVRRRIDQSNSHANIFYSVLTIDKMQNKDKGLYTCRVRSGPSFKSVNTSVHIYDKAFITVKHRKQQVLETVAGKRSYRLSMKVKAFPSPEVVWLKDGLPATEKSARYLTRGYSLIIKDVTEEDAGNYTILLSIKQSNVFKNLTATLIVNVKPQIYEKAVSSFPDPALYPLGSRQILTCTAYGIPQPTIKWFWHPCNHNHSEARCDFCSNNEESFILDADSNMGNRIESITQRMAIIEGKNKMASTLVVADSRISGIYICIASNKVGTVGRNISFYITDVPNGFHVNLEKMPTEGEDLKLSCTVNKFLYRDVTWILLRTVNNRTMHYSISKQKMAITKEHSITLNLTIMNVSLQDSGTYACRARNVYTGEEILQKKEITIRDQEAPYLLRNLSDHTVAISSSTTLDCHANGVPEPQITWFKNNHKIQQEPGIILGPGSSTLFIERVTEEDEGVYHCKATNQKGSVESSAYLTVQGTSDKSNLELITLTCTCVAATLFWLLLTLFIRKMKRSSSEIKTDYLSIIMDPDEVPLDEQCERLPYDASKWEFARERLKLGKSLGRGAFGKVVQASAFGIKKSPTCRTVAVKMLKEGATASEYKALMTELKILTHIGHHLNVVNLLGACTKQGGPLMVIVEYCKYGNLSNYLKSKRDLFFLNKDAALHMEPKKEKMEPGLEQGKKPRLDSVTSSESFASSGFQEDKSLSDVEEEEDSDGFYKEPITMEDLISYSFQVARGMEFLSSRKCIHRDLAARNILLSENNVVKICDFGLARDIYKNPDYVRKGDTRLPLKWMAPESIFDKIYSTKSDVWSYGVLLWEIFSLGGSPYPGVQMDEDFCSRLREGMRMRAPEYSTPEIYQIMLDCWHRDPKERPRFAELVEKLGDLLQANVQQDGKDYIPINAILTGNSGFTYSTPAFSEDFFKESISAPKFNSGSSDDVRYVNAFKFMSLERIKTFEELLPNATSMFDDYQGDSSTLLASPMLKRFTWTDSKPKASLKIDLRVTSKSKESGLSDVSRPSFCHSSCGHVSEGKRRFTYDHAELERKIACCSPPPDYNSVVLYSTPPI
Source text: as §1

RPS6KA5 = target: T4, RPS6KA5 (Homo sapiens, UniProt O75582)
T4 construct: purchased Luceome Biotechnologies (Tucson, Ariz.)
Source text: as §1

CAM1G = target: T5, CAM1G (Homo sapiens, UniProt Q96NX5)
T5 construct: purchased Luceome Biotechnologies (Tucson, Ariz.)
Source text: as §1

P38-γ = target: T6, P38-γ (Homo sapiens, UniProt P53778)
T6 construct: purchased Luceome Biotechnologies (Tucson, Ariz.)
Source text: as §1

PDK1 = target: T7, PDK1 (Homo sapiens, UniProt O15530)
T7 construct: purchased Luceome Biotechnologies (Tucson, Ariz.)
T7 sequence (O15530 whole entry): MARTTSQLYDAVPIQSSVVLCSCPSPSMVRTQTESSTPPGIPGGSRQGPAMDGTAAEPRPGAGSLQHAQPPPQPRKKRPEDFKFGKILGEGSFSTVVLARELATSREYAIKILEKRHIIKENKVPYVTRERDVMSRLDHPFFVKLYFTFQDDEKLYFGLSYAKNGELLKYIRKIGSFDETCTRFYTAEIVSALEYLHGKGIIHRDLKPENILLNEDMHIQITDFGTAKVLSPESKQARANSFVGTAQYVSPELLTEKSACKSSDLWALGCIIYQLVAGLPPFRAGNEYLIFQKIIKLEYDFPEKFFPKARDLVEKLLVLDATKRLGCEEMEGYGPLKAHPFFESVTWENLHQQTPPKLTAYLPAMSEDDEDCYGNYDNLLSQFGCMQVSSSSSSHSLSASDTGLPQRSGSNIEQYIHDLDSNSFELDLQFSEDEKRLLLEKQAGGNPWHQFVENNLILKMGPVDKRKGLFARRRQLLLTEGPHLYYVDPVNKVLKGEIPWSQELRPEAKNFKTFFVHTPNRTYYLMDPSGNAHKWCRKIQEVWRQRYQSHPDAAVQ
Source text: as §1

AURKA = target: T8, AURKA (Homo sapiens, UniProt O14965)
T8 construct: purchased Luceome Biotechnologies (Tucson, Ariz.)
Source text: as §1

PKAC-α = target: T9, PKAC-α (Homo sapiens, UniProt P17612)
T9 construct: purchased Luceome Biotechnologies (Tucson, Ariz.)
Source text: as §1

CAMKD2B = target: T10, CAMKD2B (Homo sapiens, UniProt Q13554)
T10 construct: purchased Luceome Biotechnologies (Tucson, Ariz.)
Source text: as §1

AKT2 = target: T11, AKT2 (Homo sapiens, UniProt P31751)
T11 construct: purchased Luceome Biotechnologies (Tucson, Ariz.)
T11 sequence (P31751 whole entry): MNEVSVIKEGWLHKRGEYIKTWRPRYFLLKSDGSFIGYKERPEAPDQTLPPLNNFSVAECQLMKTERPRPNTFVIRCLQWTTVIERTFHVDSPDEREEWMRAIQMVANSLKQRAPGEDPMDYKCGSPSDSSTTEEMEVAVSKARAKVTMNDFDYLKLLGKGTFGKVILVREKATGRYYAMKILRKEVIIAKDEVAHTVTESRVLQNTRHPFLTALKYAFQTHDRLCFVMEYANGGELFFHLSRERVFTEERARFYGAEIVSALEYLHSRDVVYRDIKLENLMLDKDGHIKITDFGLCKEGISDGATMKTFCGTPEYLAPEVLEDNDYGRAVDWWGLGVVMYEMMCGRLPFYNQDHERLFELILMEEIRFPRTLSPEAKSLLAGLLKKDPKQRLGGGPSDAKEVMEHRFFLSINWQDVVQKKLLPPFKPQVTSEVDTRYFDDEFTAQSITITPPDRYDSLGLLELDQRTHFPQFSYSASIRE
Source text: as §1

PDGFRB = target: T12, PDGFRB (Homo sapiens, UniProt P09619)
T12 construct: purchased Luceome Biotechnologies (Tucson, Ariz.)
Source text: as §1

SLK = target: T13, SLK (Homo sapiens, UniProt Q9H2G2)
T13 construct: purchased Luceome Biotechnologies (Tucson, Ariz.)
Source text: as §1

CHEK1 = target: T14, CHEK1 (Homo sapiens, UniProt O14757)
T14 construct: purchased Luceome Biotechnologies (Tucson, Ariz.)
Source text: as §1

PKD2 = target: T15, PKD2 (Homo sapiens, UniProt Q9BZL6)
T15 construct: purchased Luceome Biotechnologies (Tucson, Ariz.)
T15 sequence (Q9BZL6 whole entry): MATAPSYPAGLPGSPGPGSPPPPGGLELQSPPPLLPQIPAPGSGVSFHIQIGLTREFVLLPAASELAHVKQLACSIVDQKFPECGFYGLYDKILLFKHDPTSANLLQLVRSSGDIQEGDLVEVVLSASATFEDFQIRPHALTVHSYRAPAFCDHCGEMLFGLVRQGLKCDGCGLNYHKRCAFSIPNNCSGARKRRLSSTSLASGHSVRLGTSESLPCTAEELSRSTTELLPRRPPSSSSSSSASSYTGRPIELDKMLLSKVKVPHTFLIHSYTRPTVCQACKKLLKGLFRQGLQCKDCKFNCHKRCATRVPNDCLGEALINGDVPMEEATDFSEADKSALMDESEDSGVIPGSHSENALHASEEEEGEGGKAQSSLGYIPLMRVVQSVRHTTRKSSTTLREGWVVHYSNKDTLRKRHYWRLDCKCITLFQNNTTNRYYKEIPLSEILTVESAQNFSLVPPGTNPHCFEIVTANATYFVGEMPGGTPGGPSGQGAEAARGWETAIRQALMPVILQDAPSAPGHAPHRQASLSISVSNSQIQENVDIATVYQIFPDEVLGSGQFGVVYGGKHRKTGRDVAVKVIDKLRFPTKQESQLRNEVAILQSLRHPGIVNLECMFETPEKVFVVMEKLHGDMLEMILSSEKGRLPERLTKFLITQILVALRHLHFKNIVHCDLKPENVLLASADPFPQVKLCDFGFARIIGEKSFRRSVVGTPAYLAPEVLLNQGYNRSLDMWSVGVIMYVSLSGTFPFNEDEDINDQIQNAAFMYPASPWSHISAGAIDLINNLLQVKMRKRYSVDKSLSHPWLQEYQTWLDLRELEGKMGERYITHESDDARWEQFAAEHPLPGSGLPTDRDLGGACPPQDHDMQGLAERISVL
Source text: as §1

SYK = target: T16, SYK (Homo sapiens, UniProt P43405)
T16 construct: purchased Luceome Biotechnologies (Tucson, Ariz.)
Source text: as §1

SNF1LK = target: T17, SNF1LK (Homo sapiens, UniProt P57059)
T17 construct: purchased Luceome Biotechnologies (Tucson, Ariz.)
T17 sequence (P57059 whole entry): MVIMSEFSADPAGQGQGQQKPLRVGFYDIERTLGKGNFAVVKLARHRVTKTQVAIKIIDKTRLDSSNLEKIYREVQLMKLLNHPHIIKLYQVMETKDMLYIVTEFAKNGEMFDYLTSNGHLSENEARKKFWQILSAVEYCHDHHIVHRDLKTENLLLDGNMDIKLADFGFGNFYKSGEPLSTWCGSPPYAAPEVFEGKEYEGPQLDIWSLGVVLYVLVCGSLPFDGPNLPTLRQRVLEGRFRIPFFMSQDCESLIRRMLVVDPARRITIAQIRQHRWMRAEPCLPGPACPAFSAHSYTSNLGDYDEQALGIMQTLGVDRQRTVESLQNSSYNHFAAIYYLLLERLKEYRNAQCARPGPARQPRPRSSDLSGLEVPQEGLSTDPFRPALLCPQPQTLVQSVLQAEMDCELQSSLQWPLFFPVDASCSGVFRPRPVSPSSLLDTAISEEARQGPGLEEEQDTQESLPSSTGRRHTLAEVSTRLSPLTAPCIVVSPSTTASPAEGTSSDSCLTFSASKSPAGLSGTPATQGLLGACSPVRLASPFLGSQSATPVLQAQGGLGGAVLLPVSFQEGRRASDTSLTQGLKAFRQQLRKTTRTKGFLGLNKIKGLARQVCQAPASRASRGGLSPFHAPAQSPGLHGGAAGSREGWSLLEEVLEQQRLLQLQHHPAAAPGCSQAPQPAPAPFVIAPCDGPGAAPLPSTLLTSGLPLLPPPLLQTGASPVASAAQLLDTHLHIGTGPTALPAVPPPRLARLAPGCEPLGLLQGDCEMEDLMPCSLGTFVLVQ
Source text: as §1

CAMK1D = target: T18, CAMK1D (Homo sapiens, UniProt Q8IU85)
T18 construct: purchased Luceome Biotechnologies (Tucson, Ariz.)
Source text: as §1

PKC-ε = target: T19, PKC-ε (Homo sapiens, UniProt Q02156)
T19 construct: purchased Luceome Biotechnologies (Tucson, Ariz.)
Source text: as §1

PKG1 = target: T20, PKG1 (Homo sapiens, UniProt Q13976)
T20 construct: purchased Luceome Biotechnologies (Tucson, Ariz.)
Source text: as §1

FGFR2 = target: T21, FGFR2 (Homo sapiens, UniProt P21802)
T21 construct: purchased Luceome Biotechnologies (Tucson, Ariz.)
Source text: as §1

AKT3 = target: T22, AKT3 (Homo sapiens, UniProt Q9Y243)
T22 construct: purchased Luceome Biotechnologies (Tucson, Ariz.)
Source text: as §1

SNF1LK2 = target: T23, SNF1LK2 (Homo sapiens, UniProt Q9H0K1)
T23 construct: purchased Luceome Biotechnologies (Tucson, Ariz.)
Source text: as §1

MARK3 = target: T24, MARK3 (Homo sapiens, UniProt P27448)
T24 construct: purchased Luceome Biotechnologies (Tucson, Ariz.)
Source text: as §1

BLK = target: T25, BLK (Homo sapiens, UniProt P51451)
T25 construct: purchased Luceome Biotechnologies (Tucson, Ariz.)
Source text: as §1

RPS6KA3 = target: T26, RPS6KA3 (Homo sapiens, UniProt P51812)
T26 construct: purchased Luceome Biotechnologies (Tucson, Ariz.)
Source text: as §1

SNARK = target: T27, SNARK (Homo sapiens, UniProt Q9H093)
T27 construct: purchased Luceome Biotechnologies (Tucson, Ariz.)
Source text: as §1

PIM2 = target: T28, PIM2 (Homo sapiens, UniProt Q9P1W9)
T28 construct: purchased Luceome Biotechnologies (Tucson, Ariz.)
Source text: as §1

PKC-δ = target: T29, PKC-δ (Homo sapiens, UniProt Q05655)
T29 construct: purchased Luceome Biotechnologies (Tucson, Ariz.)
Source text: as §1

YSK1 = target: T30, YSK1 (Homo sapiens, UniProt O00506)
T30 construct: purchased Luceome Biotechnologies (Tucson, Ariz.)
Source text: as §1

CLK1 = target: T31, CLK1 (Homo sapiens, UniProt P49759)
T31 construct: purchased Luceome Biotechnologies (Tucson, Ariz.)
Source text: as §1

SRC = target: T32, SRC (Homo sapiens, UniProt P12931)
T32 construct: purchased Luceome Biotechnologies (Tucson, Ariz.)
Source text: as §1

PRS6KA1 = target: T33, PRS6KA1 (Homo sapiens, UniProt Q15418)
T33 construct: purchased Luceome Biotechnologies (Tucson, Ariz.)
Source text: as §1

CLK2 = target: T34, CLK2 (Homo sapiens, UniProt P49760)
T34 construct: purchased Luceome Biotechnologies (Tucson, Ariz.)
Source text: as §1

CAMKK1 = target: T35, CAMKK1 (Homo sapiens, UniProt Q8N5S9)
T35 construct: purchased Luceome Biotechnologies (Tucson, Ariz.)
T35 sequence (Q8N5S9 whole entry): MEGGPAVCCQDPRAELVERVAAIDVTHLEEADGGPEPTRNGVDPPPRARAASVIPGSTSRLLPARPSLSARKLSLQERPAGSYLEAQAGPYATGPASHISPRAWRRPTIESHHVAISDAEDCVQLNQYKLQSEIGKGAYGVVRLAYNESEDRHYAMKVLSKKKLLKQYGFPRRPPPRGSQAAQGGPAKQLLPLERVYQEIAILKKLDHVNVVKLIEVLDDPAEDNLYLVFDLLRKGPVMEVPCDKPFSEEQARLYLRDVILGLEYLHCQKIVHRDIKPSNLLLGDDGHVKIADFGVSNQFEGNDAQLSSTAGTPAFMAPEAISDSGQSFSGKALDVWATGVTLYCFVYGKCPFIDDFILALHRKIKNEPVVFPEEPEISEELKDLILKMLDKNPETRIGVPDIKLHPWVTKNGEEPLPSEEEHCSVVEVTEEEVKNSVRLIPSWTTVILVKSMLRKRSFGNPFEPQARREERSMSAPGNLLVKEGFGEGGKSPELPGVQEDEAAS
Source text: as §1

PAK1 = target: T36, PAK1 (Homo sapiens, UniProt Q13153)
T36 construct: purchased Luceome Biotechnologies (Tucson, Ariz.)
Source text: as §1

RPS6KA4 = target: T37, RPS6KA4 (Homo sapiens, UniProt O75676)
T37 construct: purchased Luceome Biotechnologies (Tucson, Ariz.)
Source text: as §1

AURKC = target: T38, AURKC (Homo sapiens, UniProt Q9UQB9)
T38 construct: purchased Luceome Biotechnologies (Tucson, Ariz.)
Source text: as §1

MST2 = target: T39, MST2 (Homo sapiens, UniProt Q13188)
T39 construct: purchased Luceome Biotechnologies (Tucson, Ariz.)
Source text: as §1

Compound | % Inhibition PKC-η (PKC-η) [%] | % Inhibition YES1 (YES1) [%] | % Inhibition FLT1 (FLT1) [%] | % Inhibition RPS6KA5 (RPS6KA5) [%] | % Inhibition CAM1G (CAM1G) [%] | % Inhibition P38-γ (P38-γ) [%] | % Inhibition PDK1 (PDK1) [%] | % Inhibition AURKA (AURKA) [%] | % Inhibition PKAC-α (PKAC-α) [%] | % Inhibition CAMKD2B (CAMKD2B) [%] | % Inhibition AKT2 (AKT2) [%] | % Inhibition PDGFRB (PDGFRB) [%] | % Inhibition SLK (SLK) [%] | % Inhibition CHEK1 (CHEK1) [%] | % Inhibition PKD2 (PKD2) [%] | % Inhibition SYK (SYK) [%] | % Inhibition SNF1LK (SNF1LK) [%] | % Inhibition CAMK1D (CAMK1D) [%] | % Inhibition PKC-ε (PKC-ε) [%] | % Inhibition PKG1 (PKG1) [%] | further results
CC(C)(C)OC(=O)n1ccc2c[c]([Au-][P+](C3CCCCC3)(C3CCCCC3)C3CCCCC3)ccc21 [Compound 4, 5-{Tricyclohexylphosphine aurate(I)}-tert-butyl1H-indole-1-carboxylate] | 0 | 31.7 | 9.4 | 5.0 | 0 | 0 | 24.3 | 41.7 | 12.4 | 0 | 33.6 | 15.2 | 19.6 | 0 | 3.8 | 40.7 | 40.6 | 0 | 5.9 | 3.2 | % Inhibition FGFR2 (FGFR2): 0%; % Inhibition AKT3 (AKT3): 0%; % Inhibition SNF1LK2 (SNF1LK2): 32.9%; % Inhibition MARK3 (MARK3): 34%; % Inhibition BLK (BLK): 0%; % Inhibition RPS6KA3 (RPS6KA3): 34.9%; % Inhibition SNARK (SNARK): 39.5%; % Inhibition PIM2 (PIM2): 8.7%; % Inhibition PKC-δ (PKC-δ): 3.8%; % Inhibition YSK1 (YSK1): 20.9%; % Inhibition CLK1 (CLK1): 0%; % Inhibition SRC (SRC): 5.2%; % Inhibition PRS6KA1 (PRS6KA1): 0%; % Inhibition CLK2 (CLK2): 0%; % Inhibition CAMKK1 (CAMKK1): 0%; % Inhibition PAK1 (PAK1): 0%; % Inhibition RPS6KA4 (RPS6KA4): 21.8%; % Inhibition AURKC (AURKC): 35.0%; % Inhibition MST2 (MST2): 0%
CC(C)(C)OC(=O)n1ccc2c[c]([Au-][P+](c3ccccc3)(c3ccccc3)c3ccccc3)ccc21 [Compound 3, 5-{Triphenylphosphine aurate(I)}-tert-butyl1H-indole-1-carboxylate] | 3.2 | 0 | 18.9 | 0 | 0 | 0 | 17.4 | 26.7 | 0 | 0 | 25.8 | 8.1 | 0 | 0 | 0 | 21.6 | 0 | 0 | 0 | 5.4 | % Inhibition FGFR2 (FGFR2): 5.1%; % Inhibition AKT3 (AKT3): 0%; % Inhibition SNF1LK2 (SNF1LK2): 0%; % Inhibition MARK3 (MARK3): 6.5%; % Inhibition BLK (BLK): 0%; % Inhibition RPS6KA3 (RPS6KA3): 16.7%; % Inhibition SNARK (SNARK): 0%; % Inhibition PIM2 (PIM2): 0%; % Inhibition PKC-δ (PKC-δ): 0%; % Inhibition YSK1 (YSK1): 0%; % Inhibition CLK1 (CLK1): 0%; % Inhibition SRC (SRC): 14.3%; % Inhibition PRS6KA1 (PRS6KA1): 0%; % Inhibition CLK2 (CLK2): 0%; % Inhibition CAMKK1 (CAMKK1): 0%; % Inhibition PAK1 (PAK1): 0%; % Inhibition RPS6KA4 (RPS6KA4): 1.0%; % Inhibition AURKC (AURKC): 23.9%; % Inhibition MST2 (MST2): 0%
